From patent US5753647A, “Acylamino-substituted hetrazepines” (Boehringer Ingelheim KG, priority 1991, dated 1998)

target: T1, PAF receptor on washed human platelets (Homo sapiens, UniProt P25105); test: [^3 H]PAF-receptor binding to vital human blood platelets; details: vital human thrombocytes
T1 construct: endogenous in cells; host or cells: human blood platelets (thrombocytes) from healthy donors, purified by Sepharose CL-2B chromatography
Experimental: [^3 H]PAF-Receptor-Bonding to Vital Human Blood Platelets
The competitive interaction of test substances (here PAF-antagonists) with the known interaction of the radioligand [^3 H]PAF to the same receptor is determined. The binding studies are carried out on vital human thrombocytes. Blood samples from healthy donors were diluted with ACD-buffer and centrifuged (15 min., 160×g). The platelet-rich plasma is purified by chromatography on Sepharose CL-2B [using HEPES-buffer, pH 7.4 at 20° C. for eluting].
Defined quantities [e.g. 800 μl] of the platelet suspension were incubated for 90 minutes at ambient temperature, i.e. mixed with: a) a 30 picomolar [^3 H]PAF-solution diluted with buffer. b) a 30 picomolar [3 H] PAF-solution which simultaneously contains a μ-molar (unlabelled) PAF-solution, c) with the 30 picomolar [^3 H]PAF-solution and the solutions of the test substances (different concentrations) d) used to determine total binding, e) used to determine non-specific binding.
The reaction was stopped by vacuum filtration. The filters with the blood platelets were mixed with scintillation liquid and the residual radioactivity measured in a counter.
The specific binding is obtained from the total binding minus the nonspecific binding. Either the IC50 values (i.e. the concentration of test substance which displaces 50% of the radioligand--in this case [^3 H] PAF--from the receptor) is determined and this is specified, or the Ki -values are calculated from this. This may be done by computer-aided calculation using an iteration process of the binding curves. IC50 and Ki-values are a measurement of the receptor affinity of the test substance. Lower values indicate a higher affinity.

T1 sequence (P25105 whole entry): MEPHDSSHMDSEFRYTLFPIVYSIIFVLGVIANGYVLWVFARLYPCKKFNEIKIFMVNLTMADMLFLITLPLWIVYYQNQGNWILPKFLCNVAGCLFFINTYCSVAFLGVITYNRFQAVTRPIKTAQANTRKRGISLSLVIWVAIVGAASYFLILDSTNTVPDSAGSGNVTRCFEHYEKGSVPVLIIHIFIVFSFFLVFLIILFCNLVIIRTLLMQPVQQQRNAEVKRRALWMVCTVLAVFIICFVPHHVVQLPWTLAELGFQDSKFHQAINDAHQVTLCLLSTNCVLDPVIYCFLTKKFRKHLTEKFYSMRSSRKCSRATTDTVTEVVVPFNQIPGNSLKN

Row | Molecule | Ki
1 | 3-(4-Isobutylbenzoyl)-6-(2-chlorophenyl)-8,11-dimethyl-2,3,4,5-tetrahydro-4H-pyrido[4,3:4',5']thieno-[3,2-f][1,2,4]triazolo[4,3-a]1,4diazepine [Example 2] | 1.8 nM
2 | Cc1nnc2n1-c1sc3c(c1C(c1ccccc1Cl)=NC2C)CCN(C(=O)c1ccc(Cl)cc1)C3 (centres unmarked) [Example 1, 3-(4-Chlorobenzoyl)-6-(2-chlorophenyl)-8,11-dimethyl-2,3,4,5-tetrahydro-4H-pyrido[4,3 :4',5']thieno-[3,2-f][1,2,4]triazolo[4,3-a]-1,4-diazepine] | 2.9 nM
3 | Cc1nnc2n1-c1sc3c(c1C(c1ccccc1Cl)=NC2C)CCN(C(=O)c1ccc(Cl)cc1)C3 (centres unmarked) [Example 1a] | 1.9 nM
4 | Cc1nnc2n1-c1sc3c(c1C(c1ccccc1Cl)=NC2C)CCN(C(=O)c1ccc(Cl)cc1)C3 (centres unmarked) [Example 1b] | 71 nM
5 | Cc1ccc(C(=O)N2CCc3c(sc4c3C(c3ccccc3Cl)=NC(C)c3nnc(C)n3-4)C2)cc1 (centres unmarked) [Example 20] | 22 nM
6 | Cc1nnc2n1-c1sc3c(c1C(c1ccccc1Cl)=NC2C)CCN(C(=O)c1ccc(C(C)(C)C)cc1)C3 (centres unmarked) [Example 25] | 2.4 nM
7 | COc1ccc(C(=O)N2CCc3c(sc4c3C(c3ccccc3Cl)=NC(C)c3nnc(C)n3-4)C2)cc1 (centres unmarked) [Example 29] | 7.8 nM
8 | Cc1nnc2n1-c1sc3c(c1C(c1ccccc1Cl)=NC2C)CCN(C(=O)c1ccc(C(F)(F)F)cc1)C3 (centres unmarked) [Example 67] | 2.8 nM
9 | Cc1nnc2n1-c1sc3c(c1C(c1ccccc1Cl)=NC2C)CCN(C(=O)C(C)(C)C)C3 (centres unmarked) [Example 73] | 10 nM
10 | CCc1ccc(C(=O)N2CCc3c(sc4c3C(c3ccccc3Cl)=NC(C)c3nnc(C)n3-4)C2)cc1 (centres unmarked) [Example 82] | 2.5 nM

target: T1, PAF receptor on washed human platelets; test: not given; details: as known from the prior art (EP 367 110); read-out: binding value Ki of prior art compound; cited from earlier work

Row | Molecule | Ki
11 | Cc1nnc2n1-c1sc3c(c1C(c1ccccc1Cl)=NC2)CCN(C(=O)C1CC1)C3 [3-cyclopropylcarbonyl-6-(2-chlorophenyl)-11-methyl-2,3,4,5-tetrahydro-4H-pyrido-[4,3:4',5']thieno[3,2-f][1,2,4]triazolo[4,3-a]-1,4-diazepine] | 13 nM
